Common to all, as to test: cells
For assay [1], the system named is NCI-H23. The class given is cell-based. The note with it: Homo sapiens, NCI-H23.
Assay [2] deals with U-1752. It is filed as cell-based.
Assay [3] has as its system NCI-H611. The class given is cell-based.
The test system of assay [4] is NCI-H157. The class given is cell-based. The note with it: Homo sapiens, NCI-H157.
For assay [5], the system named is U-1810. The class given is cell-based. The note with it: U-1810.
The subject of assay [6] is NCI-H125. The class given is cell-based. The settings on record: Homo sapiens, NCI-H125.
Assay [7] has as its system U-1568. The class given is cell-based.
For assay [8], the system named is U1906L. The class given is cell-based.
The subject of assay [9] is U1285. The class given is cell-based.
The test system of assay [10] is U-1906E. The class given is cell-based.
The test system of assay [11] is U1690. It is filed as cell-based.
Assay [12] concerns solid tumour fresh human tumour specimens (PHTC). The settings on record: 72 h, read-out: Tumour cell survival index % Solid.
The test system of assay [13] is CEM/S. It is filed as cell-based, human. The settings on record: Homo sapiens, 72 h.
In assay [14] the test system is CEM/R. It is filed as cell-based, human. The note with it: Homo sapiens, 72 h.
The test system of assay [15] is ACHN. The class given is cell-based, human. The note with it: Homo sapiens, ACHN, 72 h.
Assay [16] relates to H69. It is filed as cell-based, human. The note with it: Homo sapiens, NCI-H69, 72 h.
Assay [17] deals with H69AR. It is filed as cell-based, human. The note with it: Homo sapiens, H69AR, 72 h.
Assay [18] has as its system 8226S. It is filed as cell-based, human. The note with it: Homo sapiens, 72 h.
In assay [19] the test system is 8226Dox40. The class given is cell-based, human. The settings on record: Homo sapiens, 72 h.
In assay [20] the test system is 8226LR5. The class given is cell-based, human. The settings on record: Homo sapiens, 72 h.
Assay [21] concerns U937gtb. The class given is cell-based, human. The settings on record: Homo sapiens, U-937/GTB, 72 h.
Assay [22] deals with U937vcr. It is filed as cell-based, human. The settings on record: Homo sapiens, 72 h.
The subject of assay [23] is panel of ten human tumour cell lines. It is filed as cell-based. The settings on record: Homo sapiens, read-out: MEAN IC50.
Assay [24] relates to hematological fresh human tumour specimens (PHTC). The settings on record: 72 h, read-out: Tumour cell survival index % Hematological.

SMILES strings stand for the structures.

For orientation: IC50 means the concentration needed to halve the response being measured. `CC(=O)O[C@@]12CO[C@@H]1C[C@H](O)[C@@]1(C)C(=O)[C@H](O)C3=C(C)[C@@H](OC(=O)[C@H](O)[C@@H](NC(=O)OC(C)(C)C)c4ccccc4)C[C@@](O)([C@@H](OC(=O)c4ccccc4)[C@H]21)C3(C)C` [Docetaxel, docetaxel]: the IC50 was found to be 1500 nM in [1]; 460 nM in assay [2]; 1100 nM in assay [3]; 100 nM in assay [4]; 100 nM in assay [5]; 160 nM in assay [6]. Besides, the IC50 in assay [7] was 5940 nM; in [8], 100 nM; in [9], 100 nM; in assay [10] it was 100 nM; in assay [11], 7700 nM. In addition, the viability at 6.2 µM in assay [12] worked out at 67%.
Consider `COc1cccc2c1C(=O)c1c(O)c3c(c(O)c1C2=O)C[C@@](O)(C(=O)CO)C[C@@H]3O[C@H]1C[C@H](N)[C@H](O)[C@H](C)O1` [Doxorubicin, doxorubicin], for which the IC50 in assay [13] was 180 nM; in assay [14], 1310 nM; in assay [15] it was 14200 nM; in assay [16] it was 1660 nM; in [17], 11600 nM; in assay [18], 130 nM. The IC50 was 4970 nM in [19]; 550 nM in assay [20]; 110 nM in [21]; 420 nM in assay [22]; 3510 nM in [23]; 140 nM in assay [1]. Moreover, the IC50 worked out at 420 nM in [2]; 183000 nM in assay [3]; 200 nM in [4]; 22800 nM in [5]; 500 nM in assay [6]; 183000 nM in assay [7]. The IC50 in assay [8] amounted to 920 nM; in assay [9], 520 nM; in assay [10] it was 440 nM; in assay [11], 2210 nM. Moreover, the viability at 0.92 µM in [24] stood at 29%; in [12] it was 97%.

The values are drawn from patent publication EP1290011B1 (Oncopeptides AB, priority 2000, dated 2001).
